Data as given in patent publication EP0578726B1, “VIRUS INACTIVATION METHOD” (VEGATEC, priority 1991, dated 1992).

Experiments:
[1] = test system: Herpès Simplex Virus II (HSV II); experiment: Example II: kinetics of HSV II inactivation, titration on receptor cells; type: cell-based; settings: after 15 minutes of contact, (III) 5 g/l final concentration
Method: Herpès Simplex Virus II (HSV II) de l'exemple 1 est incubé avec une solution de (III) à 5 g/l en concentration finale dans son milieu de culture.
Des prélèvements sont effectués à intervalles de temps 5, 10, 15, 30 et 60 minutes, puis titrés pour leur contenu en virus infectieux sur cellules réceptrices en culture.

[2] = test system: Herpès simplex virus II (HSVII); experiment: Example I: inactivation of HSVII suspensions, detection in cell culture; type: cell-based; settings: 6,5 g/l of (III)
Method: Herpès simplex virus II (HSVII) est entretenu en culture cellulaire et les suspensions virales obtenues ont une dose infectieuse 50% (DI50) à une dilution de 10⁻⁶.
Les suspensions virales sont mises en contact avec 6,5g/l de (III) pendant 1h, 2h, 4h à 30°C.
Des témoins positifs sont réalisés dans les mêmes conditions d'incubation sans addition de (III).
L'effet virucide de (III) est arrêté par dilution au 1/100e avec du milieu de culture sans virus. La concentration virale atteint alors 10⁴DI50 pour l'effet de dilution.

[3] = test system: C 1 estérase; experiment: Example VIII: inhibitory capacity of treated C 1 Inactivateur towards C 1 estérase; type: biochemical; settings: 6 h - 24°C, (III) at 6,5 g/l, % of inhibitory activity of purified C 1 Inactivateur without additive at To
Method: La protéine a donc été traitée d'une part avec le procédé solvant-détergent, d'autre part avec (III) à une concentration finale de 6,5 g/l pendant 6 h à 24°C, dans le but d'obtenir l'inactivation des virus éventuellement présents dans la matière première.
Le tableau H montre l'influence du traitment d'inactivation virale sur les propriétés inhibitrices du C 1 Ina essayé sur trois enzymes : C 1 estérase, kallicréine, plasmine.
Le témoin est incubé 6 h à 24°C mais ne contient aucun additif inactivant.
L'activité inhibitrice est exprimée en % de l'activité inhibitrice du C 1 Inactivateur purifié sans additif et dosé à To.

With `CCCCCCCNC(=O)OC[C@H]1O[C@H](OC)[C@H](O)[C@@H](O)[C@@H]1O` [(III), 6-O-(N-heptylcarbamoyl)méthyl-α-D-glucopyranoside] the “activité virale de HSVII” value [1] was “Aucune activité virale de HSVII n'est détectée”, the “inactivation de HSVII” value ([2]; 30°C, control titre 10⁴DI50) was no less than 4 log and the “activité virale de HSVII” value ([2]; contact 1h, 2h, 4h at 30°C, stopped by 1/100 dilution) was “Aucune activité virale de HSVII n'est détectée”. For the same molecule, the “Activité anti C 1 estérase” value ([3]; essai n° 1) was 96,2% and the “Activité anti C 1 estérase” value ([3]; essai n° 2) was 100%.
